Experiment: Half life was evaluated
Format: ADME

half-life: 7 h
Compound: O=C([C@@H]1C2CCC(CC2)N1C(=O)[C@@H]1C[C@@H]1c1ccccc1)N1CCCC1

From ChEMBL document CHEMBL1129340, “New prolyl endopeptidase inhibitors: in vitro and in vivo activities of azabicyclo[2.2.2]octane, azabicyclo[2.2.1]heptane, and perhydroindole derivatives” (J Med Chem, 1996)
